# In patent publication US20250206724A1, “SUBSTITUTED 3-AMINO INDAZOLE DERIVATIVES AS KINASE INHIBITORS” (NERVIANO MEDICAL SCIENCES S.R.L., priority 2022, published 2025):
# Where a name gives a salt, the structure may show the parent alone.
# Target: T1, CDK11A (Homo sapiens, UniProt Q9UQ88)
# T1 sequence (Q9UQ88 346-783): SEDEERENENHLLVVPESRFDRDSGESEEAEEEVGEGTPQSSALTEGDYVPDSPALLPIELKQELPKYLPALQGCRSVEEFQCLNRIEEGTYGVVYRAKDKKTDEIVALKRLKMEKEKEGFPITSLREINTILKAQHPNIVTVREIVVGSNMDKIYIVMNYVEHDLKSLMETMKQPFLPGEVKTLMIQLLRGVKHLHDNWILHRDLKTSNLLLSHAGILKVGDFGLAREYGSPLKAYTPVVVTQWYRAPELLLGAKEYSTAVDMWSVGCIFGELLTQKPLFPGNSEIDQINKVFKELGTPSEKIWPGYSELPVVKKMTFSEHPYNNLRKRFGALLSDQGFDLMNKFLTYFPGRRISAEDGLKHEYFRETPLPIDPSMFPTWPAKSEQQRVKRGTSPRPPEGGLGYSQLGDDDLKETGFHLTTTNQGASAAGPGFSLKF
# Settings: displacement of SNS-032-Atto590 probe (0.002 μM) from CDK11A-p58 (0.032 uM), fluorescence polarization
# Description: Biochemical Kinase Inhibition Assay on CDK11 in Displacement Assay Format
# Displacement Assay Format
# Fluorescence Polarization (FP) experiments were carried out at room temperature using no-binding black 384-well microplates (Corning, NY), in 50 mM Tris HCl, pH 8, 10 mM MgCl2, 1 mM DTT, 1 mM CHAPS in a final volume of 60 μl. The plate reader was the Pherastar microplate reader (BMG). Polarization values were read using excitation and emission wavelengths of 590 and 675 nm, respectively. All FP values are expressed as mP units.
# Compounds were 4-folds serially diluted in 100% DMSO and added directly to the CDK11A-p58 solution using the pin tool (V & P Scientific): 0.2 ul of the different compound concentrations in 20 ul of enzyme solution. After an incubation of 30 minutes at r.t., 40 ul of probe solution were added. […] The Pherastar reading is performed after 15 minutes of all components incubation. For each assay, high controls (equivalent to 0% displacement) contain probe, CDK11A-p58, and 0.33% DMSO, whereas low controls (equivalent to 100% displacement) contain only probe and 0.33% DMSO. Controls are used for the Z′ and signal to background evaluation.
# The data per each molecule are analyzed by Prism SW or an internally customized version of the SW package “Assay Explorer” which provides sigmoidal fittings of the ten-dilution curves for DC50 determination using a 4 parameters logistic equation:
# where x is the logarithm of the inhibitor concentration, y is the response; y starts at bottom and goes to top with a sigmoid shape.
# 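Note: compound preincubated 30 min with CDK11A-p58, then probe added and polarization (mP) read 15 min later, 0% displacement is probe plus enzyme, 100% is probe alone.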
row,SMILES,DC50 [nM]
1,"CC(C)c1ccc(Cl)c(-c2ccc3[nH]nc(NC(=O)[C@@H]4CCCNC4)c3c2)c1 [cpd 48, (3R)-N-{5-[2-Chloro-5-(propan-2-yl)phenyl]-1H-indazol-3-yl}piperidine-3-carboxamide hydrochloride]",310
2,"N#Cc1ccc(Cl)c(-c2ccc3[nH]nc(NC(=O)C4CN5CCC4CC5)c3c2)c1 (stereo not drawn) [compound 188, N-[5-(2-Chloro-5-cyanophenyl)-1H-indazol-3-yl]-1-azabicyclo[2.2.2]octane-3-carboxamide hydrochloride]",275
3,"NC[C@H]1CC[C@H](C(=O)Nc2n[nH]c3ccc(-c4c(Cl)cccc4Cl)cc23)CC1 [compound 164, trans-4-(Aminomethyl)-N-[5-(2,6-dichlorophenyl)-1H-indazol-3-yl]cyclohexanecarboxamide hydrochloride]",151
4,"CN1CCC(C(=O)Nc2n[nH]c3ccc(-c4c(F)cccc4Cl)cc23)CC1 [cpd 64, N-[5-(2-Chloro-6-fluorophenyl)-1H-indazol-3-yl]-1-methylpiperidine-4-carboxamide hydrochloride]",66
5,"Nc1ccc(-c2ccc3[nH]nc(NC(=O)[C@@H]4CCCNC4)c3c2)c(Cl)c1 [cpd 5, (3R)-N-[5-(4-Amino-2-chlorophenyl)-1H-indazol-3-yl]piperidine-3-carboxamide dihydrochloride]",18
6,"Cc1ccc(-c2ccc3[nH]nc(NC(=O)[C@@H]4CCCNC4)c3c2)c(Cl)c1 [cpd 8, (3R)-N-[5-(2-Chloro-4-methylphenyl)-1H-indazol-3-yl]piperidine-3-carboxamide hydrochloride]",125
7,"O=C(Nc1n[nH]c2ccc(-c3cc(F)ccc3C(F)(F)F)cc12)[C@@H]1CCCNC1 [cpd 46, (3R)-N-{5-[5-Fluoro-2-(trifluoromethyl)phenyl]-1H-indazol-3-yl}piperidine-3-carboxamide hydrochloride]",37
8,"O=C(Nc1n[nH]c2ccc(-c3ccccc3)cc12)[C@@H]1CCCNC1 [cpd 49, (3R)-N-(5-Phenyl-1H-indazol-3-yl)piperidine-3-carboxamide hydrochloride]",78
9,"CN1CCC(C(=O)Nc2n[nH]c3ccc(-c4cc(F)ccc4C#N)cc23)CC1 [compound 136, N-[5-(2-Cyano-5-fluorophenyl)-1H-indazol-3-yl]-1-methylpiperidine-4-carboxamide hydrochloride]",486
10,"N#Cc1ccc(C#N)c(-c2ccc3[nH]nc(NC(=O)[C@@H]4CCCNC4)c3c2)c1 [cpd 53, (3R)-N-[5-(2,5-Dicyanophenyl)-1H-indazol-3-yl]piperidine-3-carboxamide hydrochloride]",30
11,"CN1CCC(C(=O)Nc2n[nH]c3ccc(-c4c(F)ccc(C#N)c4F)cc23)CC1 [compound 134, N-[5-(3-Cyano-2,6-difluorophenyl)-1H-indazol-3-yl]-1-methylpiperidine-4-carboxamide]",125
12,"CCC(=O)c1ccc(Cl)c(-c2ccc3[nH]nc(NC(=O)[C@@H]4CCCNC4)c3c2)c1 [cpd 43, (3R)-N-[5-(2-Chloro-5-propanoylphenyl)-1H-indazol-3-yl]piperidine-3-carboxamide hydrochloride]",19
13,"CC(C)N1CCC(C(=O)Nc2n[nH]c3ccc(-c4cc(C#N)ccc4Cl)cc23)CC1 [compound 143, N-[5-(2-Chloro-5-cyanophenyl)-1H-indazol-3-yl]-1-(propan-2-yl)piperidine-4-carboxamide hydrochloride]",89
14,"Nc1ccc(Cl)c(-c2ccc3[nH]nc(NC(=O)[C@@H]4CCCNC4)c3c2)c1 [cpd 34, (3R)-N-[5-(5-Amino-2-chlorophenyl)-1H-indazol-3-yl]piperidine-3-carboxamide dihydrochloride]",19
15,"O=C(Nc1n[nH]c2ccc(-c3cc(F)ccc3F)cc12)[C@@H]1CCCNC1 [cpd 35, (3R)-N-[5-(2,5-Difluorophenyl)-1H-indazol-3-yl]piperidine-3-carboxamide hydrochloride]",35
16,"N#Cc1ccc(Cl)c(-c2ccc3[nH]nc(NC(=O)C4CC(NC5CC5)C4)c3c2)c1 (stereo not drawn) [compound 155, N-[5-(2-Chloro-5-cyanophenyl)-1H-indazol-3-yl]-3-(cyclopropylamino)cyclobutanecarboxamide hydrochloride]",53
17,"O=C(Nc1n[nH]c2ccc(-c3ccc(F)cc3F)cc12)[C@@H]1CCCNC1 [cpd 30, (3R)-N-[5-(2,4-Difluorophenyl)-1H-indazol-3-yl]piperidine-3-carboxamide hydrochloride]",38
18,"Cc1ccc(-c2ccc3[nH]nc(NC(=O)[C@@H]4CCCNC4)c3c2)c(C(F)(F)F)c1 [cpd 36, (3R)-N-{5-[4-Methyl-2-(trifluoromethyl)phenyl]-1H-indazol-3-yl}piperidine-3-carboxamide hydrochloride]",65
19,"NCCC(=O)Nc1n[nH]c2ccc(-c3c(Cl)cccc3Cl)cc12 [compound 175, N-[5-(2,6-Dichlorophenyl)-1H-indazol-3-yl]-b-alaninamide hydrochloride]",339
20,"CN(C)C1CCC(C(=O)Nc2n[nH]c3ccc(-c4c(Cl)cccc4Cl)cc23)CC1 (stereo not drawn) [compound 166, N-[5-(2,6-Dichlorophenyl)-1H-indazol-3-yl]-4-(dimethylamino)cyclohexanecarboxamide hydrochloride]",133
21,"O=C(Nc1n[nH]c2ccc(-c3cc(OC(F)(F)F)ccc3F)cc12)[C@@H]1CCCNC1 [cpd 23, (3R)-N-{5-[2-Fluoro-5-(trifluoromethoxy)phenyl]-1H-indazol-3-yl}piperidine-3-carboxamide hydrochloride]",75
22,"CN(C)C1CC(C(=O)Nc2n[nH]c3ccc(-c4ccc(O)cc4Cl)cc23)C1 (stereo not drawn) [cpd 62, N-[5-(2-Chloro-4-hydroxyphenyl)-1H-indazol-3-yl]-3-(dimethylamino)cyclobutanecarboxamide hydrochloride]",148
23,"CN(C)C1CC(C(=O)Nc2n[nH]c3ccc(-c4cc(C#N)ccc4Cl)cc23)C1 (stereo not drawn) [compound 147, N-[5-(2-Chloro-5-cyanophenyl)-1H-indazol-3-yl]-3-(dimethylamino)cyclobutanecarboxamide hydrochloride]",108
24,"COC(=O)c1cc(-c2ccc3[nH]nc(NC(=O)[C@@H]4CCCNC4)c3c2)c(Cl)cc1Cl [cpd 42, Methyl 2,4-dichloro-5-(3-{[(3R)-piperidin-3-ylcarbonyl]amino}-1H-indazol-5-yl)benzoate hydrochloride]",57
25,"CCCCCN1CCC(C(=O)Nc2n[nH]c3ccc(-c4cc(C#N)ccc4Cl)cc23)CC1 [compound 142, N-[5-(2-Chloro-5-cyanophenyl)-1H-indazol-3-yl]-1-pentylpiperidine-4-carboxamide hydrochloride]",95

# Now from value to compound:
row,DC50 [nM],SMILES
1,216,"CN1CCC(C(=O)Nc2n[nH]c3ccc(-c4cc(Cl)ccc4Cl)cc23)CC1 [cpd 80, N-[5-(2,5-Dichlorophenyl)-1H-indazol-3-yl]-1-methylpiperidine-4-carboxamide hydrochloride]"
2,938,"CN1CCC(C(=O)Nc2n[nH]c3ccc(-c4ccccc4)cc23)CC1 [cpd 93, 1-Methyl-N-(5-phenyl-1H-indazol-3-yl)piperidine-4-carboxamide hydrochloride]"
3,822,"CCc1ccccc1-c1ccc2[nH]nc(NC(=O)C3CCN(C)CC3)c2c1 [cpd 88, N-[5-(2-Ethylphenyl)-1H-indazol-3-yl]-1-methylpiperidine-4-carboxamide hydrochloride]"
4,692,"CN1CCC(C(=O)Nc2n[nH]c3ccc(-c4cccc(F)c4)cc23)CC1 [cpd 101, N-[5-(3-Fluorophenyl)-1H-indazol-3-yl]-1-methylpiperidine-4-carboxamide hydrochloride]"
5,27,"CC(C)Oc1ccc2[nH]nc(NC(=O)[C@@H]3CCCNC3)c2c1 [cpd 230, (3R)-N-[5-(Propan-2-yloxy)-1H-indazol-3-yl]piperidine-3-carboxamide hydrochloride]"
6,165,"CN1CCC(C(=O)Nc2n[nH]c3ccc(-c4cc([N+](=O)[O-])ccc4F)cc23)CC1 [cpd 115, N-[5-(2-Fluoro-5-nitrophenyl)-1H-indazol-3-yl]-1-methylpiperidine-4-carboxamide hydrochloride]"
7,259,"CN1CCC(C(=O)Nc2n[nH]c3ccc(-c4ccc(Cl)cc4Cl)cc23)CC1 [cpd 106, N-[5-(2,4-Dichlorophenyl)-1H-indazol-3-yl]-1-methylpiperidine-4-carboxamide hydrochloride]"
8,166,"Cc1ccc(Cl)c(-c2ccc3[nH]nc(NC(=O)C4CCN(C)CC4)c3c2)c1F [cpd 72, N-[5-(6-Chloro-2-fluoro-3-methylphenyl)-1H-indazol-3-yl]-1-methylpiperidine-4-carboxamide hydrochloride]"
9,85,"CN1CCC(C(=O)Nc2n[nH]c3ccc(-c4c(Cl)cccc4Cl)cc23)CC1 [cpd 68, N-[5-(2,6-Dichlorophenyl)-1H-indazol-3-yl]-1-methylpiperidine-4-carboxamide]"
10,784,"CN1CCC(C(=O)Nc2n[nH]c3ccc(-c4cccc(C#N)c4)cc23)CC1 [cpd 89, N-[5-(3-Cyanophenyl)-1H-indazol-3-yl]-1-methylpiperidine-4-carboxamide hydrochloride]"
11,446,"CN1CCC(C(=O)Nc2n[nH]c3ccc(-c4cc(CO)ccc4Cl)cc23)CC1 [cpd 77, N-{5-[2-Chloro-5-(hydroxymethyl)phenyl]-1H-indazol-3-yl}-1-methylpiperidine-4-carboxamide p-toluensulfonate]"
